# From patent publication US20240009170A1, “INHIBITION OF GLYCOGEN SYNTHASE KINASE-3 (GSK-3)” (Brown University, priority 2020, published 2024)
# Experiments:
# Type in all cases: cell-based, Human
# [1] = test system: NK-92 cells; assay: Cytokine profile of immune cell culture supernatant, NK-92; settings: 1 μM, 48 hours
# Method: Collection of cell culture supernatants used in cytokine measurements. Cells were plated at 3.5×10^4 cells in a 48-well plate (Thermo Fisher Scientific, Waltham, MA, USA) in complete medium and incubated at 37° C. with 5% CO2. At twenty-four hours after plating, almost all the tumor cells were adherent to the bottom of the flask and the complete medium was replaced with drug-containing medium. Subsequently, the culture supernatants were collected after forty-eight hours of incubation and were frozen at −80° C. until the measurement of cytokines was performed. The day of analysis, samples were thawed and centrifuged to remove cellular debris.
# Human cytokine profiling. Human cell line culture supernatants were analyzed using an R&D systems Human Premixed Multi-Analyte Kit (R&D Systems, Inc., Minneapolis, MN, USA) and a Luminex 200 Instrument (LX200-XPON-RUO, Luminex Corporation, Austin, TX, USA) according to the manufacturer's instructions. […]
# 9-ING-41 increases secreted cytotoxic proteins IFN-v, Granzyme B, and TRAIL in immune cells. […] Here, the inventors determined how 9-ING-41 treatment impacts the immune cell cytokinome. […]
# [2] = test system: SW480 tumor cells; assay: Co-culture of CD8+ donor-derived healthy T cells and SW480 tumor cells
# Method: Isolation of donor derived CD8+ T cells. An Easy Step Human CD8+ T Cell Isolation Kit was used to isolated CD8+ T cells from a donor PBMC sample via negative selection (Cat #, 17913, Stem Cell Technologies, Vancouver, Canada).
# (§1) Immune cell co-culture experiments. Co-culture experiments were conducted with GFP+ SW480 or HCT-116 colorectal cancer cells and either NK-92 natural killer cells or TALL-104 T cells in a 48-well plate, in the presence or absence of 9-ING-41. HCT-116 cells were labeled using CellTracker™ Green CMFDA (5-chloromethylfluorescein diacetate), immune cells (NK-92, TALL-104) were labeled using CellTracker™ Blue CMAC Dye (7-amino-4-chloromethylcoumarin), and ethidium homodimer-1 (EthD-1) was used as a marker of cell death (Invitrogen, Thermo Fisher Scientific, Waltham, MA, USA).
# TALL-104 cells are a human leukemic T cell line. […] Healthy CD8+ T cells were isolated from a donor blood sample consistent with an IRB-approved protocol. A co-culture of GFP+ SW480 tumor cells and Green CM FDA-labeled CD8+ donor-derived healthy T cells was then treated with 9-ING-41 and the % of dead cells out of total cells was quantified after twenty-four hours. […] The data was then normalized, as described earlier.
# Pre-treatment with 9-ING-41 sensitizes SW480 tumor cells to immune cell-mediated cell killing. […]
# [3] = test system: NK-92; assay: Flow cytometric analysis of cell surface markers, NK-92; settings: 48 hours
# Method: FIG. 12 is a set of bar graphs showing flow cytometric analyses of cell surface markers of tumor and immune cells treated with 9-ING-41 in vitro. FIG. 12(A) HCT-116, FIG. 12(B) HT-29, FIG. 12(C) TALL-104, and FIG. 12(D) NK-92 cells were treated with indicated concentrations of 9-ING-41 for forty-eight hours, stained for indicated cell surface marker expression, and analyzed with a BD LSRII. Statistical significance was determined using two-tailed unpaired T tests.
# To further understand the differential 9-ING-41-mediated impacts on protein expression, the inventors treated tumor and immune cells in vitro with 9-ING-41, then performed a flow cytometric analysis for expression of cell surface markers. […] A similar trend occurred in HT-29 cells, although not statistically significant. […] FIG. 10(C). […] FIG. 10(D).
# [4] = test system: SW480 tumor cells; assay: Immune cell co-culture of TALL-104 T cells and SW480 tumor cells; settings: for dead cells out of total cells, average, after normalization: 1:1 TALL-104 to SW480
# Method: as §1
# Co-culture experiments were conducted with GFP+ SW480 colorectal cancer cells and either NK-92 natural killer cells or TALL-104 T cells at various effector/target ratios in a 48-well plate, in the presence or absence of 9-ING-41.
# The compound 9-lNG-41 boosts immune cell-mediated tumor cell-killing in a co-culture model. A co-culture of GFP+ SW480 tumor cells and Green CMFDA-labeled TALL-104 T cells treated with 9-ING-41 lead to an increase in tumor cell death after twenty-four hours. […] In the co-culture with tumor and immune cells only, in the absence of drug, the inventors noted that the percentage of dead cells out of total cells was approximately 27%, after normalization. Normalization was carried out by subtracting the percentage of cell death due to drug or vehicle control (DMSO) only from the percentage of dead cells observed in the co-culture treated with drug.
# Pre-treatment with 9-ING-41 sensitizes SW480 tumor cells to immune cell-mediated cell killing. To determine if the increased amount of immune-cell mediated tumor cell-killing was due to the drug's impact on the tumor cells or the immune cells, the inventors next pre-treated tumor cells with 9-ING-41 for twenty-four hours before the co-culture with immune cells began. Pre-treatment with 9-ING-41 sensitized SW480 tumor cells to TALL-104 cell-mediated cell killing. The raw percentages of cell death were used to normalize the data. The inventors confirmed these co-culture results using healthy, CD8+ T cells instead of TALL-104 cells.
compound,measurement,setting,value
Cn1cc(C2=C(c3coc4ccc(F)cc34)C(=O)NC2=O)c2cc3c(cc21)OCO3 [9-ING-41],IFN-γ and TRAIL,[1],increases
same,concentration of secreted granzyme B,[1],decreases
same,tumor cell death in co-cultures with CD8+ donor-derived healthy T cells,"[2]; 24 hours, normalized",Even more impressive tumor cell death
same,"tumor cell death after tumor cell pre-treatment, CD8+ T cells","[2]; pre-treatment of tumor cells, 24 hours of co-culture",statistically significant increase in tumor cell death
same,TRAIL and LAG3 surface expression,[3],increases
same,checkpoint molecule NKG2A surface expression,[3],statistically significant decreases
same,"dead cells out of total cells, average, after normalization","[4]; 5 μM 9-ING-41, 24-hour co-culture",33%
same,"dead cells out of total cells, average, after normalization","[4]; 10 μM 9-ING-41, 24-hour co-culture",37%
same,amount of TALL-104 cell-mediated SW480 cell-killing,"[4]; after treatment, 24 hours",dose-dependent increase
same,T cell (TALL-104) killing of colorectal cancer cells,[4]; compared to controls without drug treatment,significant increase
same,tumor cell death in SW480 monocultures treated with drug only,"[4]; monoculture, no immune cells",Limited tumor cell death
same,TALL-104 cell-mediated cell killing after tumor cell pre-treatment,[4]; tumor cells pre-treated 24 hours before co-culture,sensitized
